Assay results: patent US20030092613A1, “Alpha7 nicotinic receptor peptides as ligands for beta amyloid peptides” (priority 2000, published 2003)
Where two headings read alike, the source gives them in different places.

Columns and labels:
[1] = target: huma7 peptide / β-amyloid1-40 (Homo sapiens, UniProt P36544); assay: Huma7 binding assay: 125I-β-amyloid1-40 binding to immobilized huma7 peptide
Biotin-huma7-5 [2] = assay: Fluo-β-amyloid1-42 binding assay to Biotin-huma7-5; parameters: species or system human
Biotin-huma7-5 [3] = tested on: Biotin-huma7-5; parameters: species or system human; settings: read-out: IC50, 125I-α-BTX binding to Biotin-huma7-5
[4] = tested on: guinea pig hippocampal synaptosomes; assay: ACh release from guinea pig hippocampal synaptosomes (β-amyloid inhibition of K+-evoked release); assay type: cell-based; settings: attenuation of β-amyloid's inhibition on potassium-evoked ACh release
Procedure: ACh release from guinea pig hippocampal synaptosomes: Synaptosomes (P2 fraction) were prepared from guinea pig hippocampus as described previously and re-suspended in a Krebs-Ringer solution containing 0.1 μM [methyl-^3H]choline chloride (NEN, Boston, Mass.) and incubated at 37° C. for 30 min. Unincorporated choline was removed by washing and the synaptosomes were resuspended in Krebs-Ringer solution to 10 mg/mL. ACh release from synaptosomes was measured using the parallel superfusion chambers (Hugo Sachs Elektronik, March-Hugstetten, Germany) according to that described earlier (Wang, H. -Y. et al Neuropeptides 1999; 33, 197-205). […]
The tissues were treated with peptides and ACh release was evoked by superfusing with 65 mM K^+-Krebs-Ringer (made by equimolar replacement of NaCl with KCl) for 30 seconds. […] The amount of ^3H in the superfusate samples was measured by liquid scintillation spectrometry.
Tritiurn efflux into the superfusate was calculated as the fraction of ^3H content in the synaptosomes at the onset of the respective collection period. […]
Data are expressed as the mean fractional ^3H release±S.E.M. Statistical differences between treatments were tested by Student's t test, two-tailed or the two-factor ANOVA as appropriate. Individual differences in the dose-response curve were evaluated by the Newman-Keuls multiple comparison test.

α7nAChR = target: T1, α7nAChR (Homo sapiens, UniProt P36544); assay: α7nAChR binding assay: 125I-β-amyloid1-40 binding to α7SK-N-MC membranes (SPA); settings: inhibition of 125I-β-amyloid1-40 (20 pM) binding to α7SK-N-MC membranes
T1 construct: expressed in transfected cells; host or cells: SK-N-MC (ATCC HTB-10), membranes
Procedure: α7nAChR (nicotinic acetylcholine receptor) binding assay: Membranes from recombinant SK-N-MC cells (ATCC#HTB-10) overexpressing α7nAChR (α7SK-N-MC) were prepared according to standard procedures (Wang et al, J. Biol Chem. 275, 5626-5632, 2000) except that the membranes were thoroughly washed. For each assay, membranes (20 μg) were precoupled to wheat germ agglutinin yittrium SPA beads (250 μg, Amersham) in 50 mM HEPES (pH 7.5) containing 0.01% BSA, 2 mM Mg^2+, 2 mM Ca^2+ and protease inhibitors (Boehringer Mannheim, Germany). […] At the end of the incubation (30 min), bound radioactivity was measured in a TopCount (Packard, Meriden, Conn.). Data were analyzed using Graphpad Prism software (Graphpad Software Incorporated).

[5] = first phase, read-out: Calculated EC50 for biphasic response, EC50 - 1
[6] = second phase, read-out: Calculated EC50 for biphasic response, EC50 - 2

T1 sequence (P36544 23-502): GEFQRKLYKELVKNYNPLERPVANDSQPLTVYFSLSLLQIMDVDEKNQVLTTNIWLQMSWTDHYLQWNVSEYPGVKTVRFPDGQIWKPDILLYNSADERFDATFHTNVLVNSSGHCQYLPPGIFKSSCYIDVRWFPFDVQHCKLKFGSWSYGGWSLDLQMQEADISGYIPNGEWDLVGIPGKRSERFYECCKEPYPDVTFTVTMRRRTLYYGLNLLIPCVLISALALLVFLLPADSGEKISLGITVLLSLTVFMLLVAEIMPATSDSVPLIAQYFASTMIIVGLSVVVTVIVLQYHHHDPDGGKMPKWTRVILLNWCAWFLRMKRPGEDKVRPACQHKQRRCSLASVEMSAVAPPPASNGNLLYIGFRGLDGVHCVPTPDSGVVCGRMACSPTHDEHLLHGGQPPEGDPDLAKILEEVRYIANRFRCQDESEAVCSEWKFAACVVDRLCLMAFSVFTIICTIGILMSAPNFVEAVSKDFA
huma7 peptide / β-amyloid1-40, sequence (P36544 193-224): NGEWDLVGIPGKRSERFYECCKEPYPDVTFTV

Which results are given for α-bungarotoxin [α-BTX]?
inhibition of 125I-β-amyloid1-40 binding to immobilized huma7 [1]: can be inhibited; % Inh @ 100 μM, Fluo-β-amyloid1-42 binding to Biotin-huma7-5 (Biotin-huma7-5 [2]): 100%; IC50 (Biotin-huma7-5 [3]): 100 nM

How did the “% Inh @ 100 μM, Fluo-β-amyloid1-42 binding to Biotin-huma7-5” value (Biotin-huma7-5 [2]; 100 μM, 100 nM Fluo-β-amyloid1-42, 1 hr at 25° C.) turn out when Aβ42: β-amyloid peptide1-42 was run?
Its value is 85%.

28 (ECCK) [compound 28] was tested. Which “ACh rel % Inh @ 100 μM” value [4] did it give?
Its value is 87%.

Which results are given for `N[C@@H](Cc1ccc(O)cc1)C(=O)N1CCC[C@H]1C(=O)N[C@@H](Cc1c[nH]c2ccccc12)C(=O)N[C@@H](Cc1ccccc1)C(=O)O` [YPWF peptide, YPWF]?
EC50 (α7nAChR; [5]): 0.00351 nM; EC50 (α7nAChR; [6]): 20.3 nM

For `CC(C)C[C@H](NC(=O)[C@H](CCCCN)NC(=O)[C@H](CCC(N)=O)NC(=O)[C@H](Cc1c[nH]cn1)NC(=O)[C@H](Cc1c[nH]cn1)NC(=O)[C@@H](N)C(C)C)C(=O)N[C@H](C(=O)N[C@@H](Cc1ccccc1)C(=O)N[C@@H](Cc1ccccc1)C(=O)N[C@@H](C)C(=O)N[C@@H](CCC(=O)O)C(=O)N[C@@H](CC(=O)O)C(=O)N[C@H](C(=O)NCC(=O)N[C@@H](CO)C(=O)N[C@@H](CC(N)=O)C(=O)N[C@@H](CCCCN)C(=O)O)C(C)C)C(C)C` [Aβ12-28], which IC50 (Biotin-huma7-5 [3]) is on record?
Its IC50 is 400 nM.

`CCCN(CCC)C1Cc2c(O)ccc(O)c2CC1C` (centres unmarked) [Inhibitor A] was tested. Which EC50 (α7nAChR; [5]) did it give?
The EC50 was 0.133 nM.

What about the EC50 (α7nAChR; [6]) of the same compound?
The EC50 was 34700 nM.

What about the “inhibition of 125I-β-amyloid1-40 binding to immobilized huma7” value ([1]; 10 μM inhibitors, FIG. 2) of the same compound?
The value was “can be inhibited”.
